Experiment [1] has as its system HLA-A*02:01 transgenic mouse. Description: Induction of antigen-specific effector memory CTL, flow cytometry (Test 14). The format is in vivo. The settings on record: twice; for induction of antigen peptide-specific effector memory CTL (CD8+ tetramer+ CD127+ CD62L-): 325 ng per body in vaccine b compared with the vaccine without compound. The protocol:
The activity of a vaccine comprising the compounds prepared in Examples 2 and 3 for inducing effector memory CTL was evaluated through the cell surface antigen expression analysis of CTL by flow cytometry.
Specifically, vaccine a prepared like Test 6 was injected to a HLA-A*02:01 transgenic mouse intradermally at the tail base area in an amount for administering 300 μg of Compound of formula 4 per body and 225 μg of Peptide SEQ ID No. 3 per body. The administrations were done twice, which had one week interval. Or, a vaccine prepared by adding the compound prepared in Example 3 to vaccine a was injected to the mouse intradermally at the tail base area in an amount for administering 300 μg of Compound of formula 4 per body, 225 μg of Peptide SEQ ID No. 3 per body, and 32.5 ng of the compound prepared in Example 3 per body. The administrations were done twice, which had one week interval. Or, vaccine b prepared like Test 8 was injected to the mouse intradermally at the tail base area in an amount for administering 300 μg of Compound of formula 4 per body and 225 μg of Peptide SEQ ID No. 3 per body. Or a vaccine prepared by adding the compound prepared in Example 3 to vaccine b was injected to the mouse intradermally at the tail base area in an amount for administering 300 μg of Compound of formula 4 per body, 225 μg of Peptide SEQ ID No. 3 per body, and 325 ng of the compound prepared in Example 3 per body. Or a vaccine prepared by adding the compound prepared in Example 2 to vaccine b was injected to the mouse intradermally at the tail base area in an amount for administering 300 μg of Compound of formula 4 per body, 225 μg of Peptide SEQ ID No. 3 per body, and 325 ng of the compound prepared in Example 2 per body. […] 1, a PE-Cy7-labeled anti-CD127 antibody, and a PerCP-Cy5.5-labeled anti-CD62L antibody, and analyzed for peptide-specific effector memory CTLs with a flow cytometer. The ratio of CD8-positive tetramer-positive CD127-positive CD62L-negative fraction in the lymphocyte fraction was calculated as peptide-specific effector memory CTL.
A general note: Flow cytometry measures light scatter and fluorescence of single cells or particles in a stream.

Experiment [2] deals with human peripheral blood mononuclear cell. Description: Activation of immune cells, human PBMC cytokine/chemokine production (Test 3). Type of experiment: cell-based. The settings on record: 200 nmol/L, one day, PBMCs from two donors, compared with only DMSO. How it is done:
Cryopreserved peripheral blood mononuclear cells (PBMCs) of adult (C.T.L) were reconstituted, suspended in a culture medium which comprises AIM V medium (Life Technologies) supplemented with 10% human serum (biowest) and 1% MEM Non-Essential Amino Acids Solution (100×) (Life Technologies), and seeded on a U-bottom 96 well plate at 4×10^5 cells/well. The compound of the present invention was added in the presence of 0.1% (v/v) DMSO to the wells at a final concentration of 200 nmol/L. The plate was incubated at 37° C. under an atmosphere of 5% CO2. One day after the incubation, the culture supernatant was collected. The concentration of cytokine and chemokine (GM-CSF, IFNα2, IFNγ, IL-12p40, IL-1p, IL-6, IP-10, and TNFα) which were included in each culture supernatant was measured with Milliplex Human Cytokine/Chemokine Magnetic Bead Panel kit (Millipore) and Luminex system (Luminex) in accordance with the manufacturer's protocol.
The results of the test wherein PBMCs derived from two different donors were used were shown in FIG. 1-A to FIG. 1-I. The white bar indicates the mean number of the concentration of cytokine and chemokine in the culture supernatant from three wells to which only DMSO was added, and the black bar indicates the mean number of the concentration of cytokine and chemokine in the culture supernatant from three wells to which the present compound was added. […]

Experiment [3] deals with HLA-A*02:01 transgenic mouse. As to the kind of experiment: In vivo adjuvant activity, CTL induction with vaccine b (Montanide ISA 51 VG), IFNγ ELISPOT (Test 8). The settings on record: compound (32.5 ng or 325 ng per body) added to vaccine b versus no compound; twice, one week interval. The protocol:
The in vivo adjuvant activity of the compounds prepared in Examples 2 and 3 was evaluated in the following procedure. To a cocktail vaccine comprising Compound of formula 4 prepared in Reference example 9 and Peptide SEQ ID No. 3 prepared in Reference example 3 with Montanide ISA51 VG (hereinafter, referred to as “vaccine b”) was added the compound prepared in Example 2 or 3 to prepare each vaccine. The vaccine was administered to a HLA-A*02:01 transgenic mouse, and the adjuvant activity of each vaccine was evaluated by the method of testing antigen-specific CTL induction.
Specifically, Compound of formula 4 and Peptide SEQ ID No. 3 were dissolved in DMSO, and then diluted with water for injection to concentrations of Compound of formula 4 of 3 mg/mL and Peptide SEQ ID No. 3 of 2.25 mg/mL. The diluted peptide solution was mixed and emulsified with an equal volume of Montanide ISA 51 VG (Seppic) to prepare vaccine b. Cocktail vaccine b was injected to mice intradermally at the tail base area in an amount for administering 300 μg of Compound of formula 4 per body and 225 μg of Peptide SEQ ID No. 3 per body. Or, in the step of preparing vaccine b, the compound prepared in Example 3 was added to the diluted peptide solution to prepare a vaccine, and the prepared vaccine was injected to mice intradermally at the tail base area in an amount for administering 300 μg of Compound of formula 4 per body, 225 μg of Peptide SEQ ID No. 3 per body, and 32.5 ng or 325 ng of the compound prepared in Example 3 per body. Or, in the step of preparing vaccine b, the compound prepared in Example 2 was added to the diluted peptide solution to prepare a vaccine, and the prepared vaccine was injected to mice intradermally at the tail base area in an amount for administering 300 μg of Compound of formula 4 per body, 225 μg of Peptide SEQ ID No. 3 per body, and 32.5 ng or 325 ng of the compound prepared in Example 2 per body. The administrations were done twice, which had one week interval. One week after the final administration, the mice were sacrificed with CO2 gas. Splenocytes were harvested from spleens removed from the mice. Like Test 6, Peptide (SEQ ID No. 1 or SEQ ID No. 5) was added to the splenocyte-containing ELISPOT plate, and the plate was incubated overnight at 37° C. under an atmosphere of 5% CO2 to re-stimulate the peptide in vitro. Then, after removal of the supernatant from the wells, stained spots on the ELISPOT plate were counted.

The text below walks through data of patent US20220241409A1, “WATER SOLUBLE ADJUVANT AND COMPOSITION CONTAINING SAME” (Sumitomo Dainippon Pharma Co., Ltd., priority 2019, published 2022).

Molecules are shown by their SMILES.

Turning to `CCCCOc1nc(N)c2[nH]c(=O)n(Cc3ccc(CN(C)CCOCCOCCOCCOCCO)nc3)c2n1` [Example 2, 6-amino-2-butoxy-9-{[6-(16-hydroxy-2-methyl-5,8,11,14-tetraoxa-2-azahexadecan-1-yl)pyridin-3-yl]methyl}-7,9-dihydro-8H-purin-8-one-trifluoroacetate], the “induction of antigen peptide-specific effector memory CTL (CD8+ tetramer+ CD127+ CD62L-)” value in experiment [1] was “high frequency”. Moreover, the “concentration of cytokine and chemokine (GM-CSF, IFNα2, IFNγ, IL-12p40, IL-1β, IL-6, IP-10, TNFα) in culture supernatant” value in experiment [2] is on record as “higher”. Moreover, in experiment [3], the “CTL counts responsive to Peptide of SEQ ID No. 1” value is reported as “more” and the “CTL counts responsive to Peptide of SEQ ID No. 5” value is listed as “more”.
Take `CCCCOc1nc(N)c2[nH]c(=O)n(Cc3ccc(CN(C)CCOCCOCCOCCOCCO)cc3)c2n1` [Example 3, 6-amino-2-butoxy-9-{[4-(16-hydroxy-2-methyl-5,8,11,14-tetraoxa-2-azahexadecan-1-yl)phenyl]methyl}-7,9-dihydro-8H-purin-8-one]: the “induction of peptide-specific effector memory CTL (CD8+ tetramer+ CD127+ CD62L-)” value in experiment [1] (32.5 ng per body in vaccine a compared with vaccine a) is reported as “high frequency”. Further, in experiment [1], the “induction of antigen peptide-specific effector memory CTL (CD8+ tetramer+ CD127+ CD62L-)” value is listed as “high frequency”. Moreover, the “concentration of cytokine and chemokine (GM-CSF, IFNα2, IFNγ, IL-12p40, IL-1β, IL-6, IP-10, TNFα) in culture supernatant” value in experiment [2] is given as “higher”. For the same molecule, in experiment [3], the “CTL counts responsive to Peptide of SEQ ID No. 1” value is “more” and the “CTL counts responsive to Peptide of SEQ ID No. 5” value was “more”.
